The source of these data is patent US20110112099A1, “THERAPEUTIC AGENT FOR CANCER RESISTANT TO PROTEASE INHIBITOR” (KYOWA HAKKO KIRIN CO., LTD., priority 2007, published 2011).

Read-outs that look alike come from different tables or passages of the source. Where a SMILES comes first, the peptide text is derived from it. The star is where a group is joined. Cbz = O=C(OCc1ccccc1)*

Experiment [1] relates to refractory/recurrent multiple myeloma. The note with it: phase I, IPI-504 alone; cited from earlier work.
The test system of experiment [2] is KMS-11/Bor (bortezomib-resistant KMS-11 cells). The experiment can be described thus: Test for the growth inhibition to KMS-11/Bor (WST-1, 72 hours). The class given is cell-based, human. As to conditions: for IC50: KMS-11/Bor cells, 72 hours, WST-1, read-out: IC50 KMS-11/Bor (growth-inhibitory effect, viable cell number); for IC50 ratio (IC50 of KMS-11/Bor divided by IC50 of KMS-11): degree of bortezomib resistance, KMS-11/Bor vs KMS-11. On the procedure: KMS-11 cells were suspended in an RPMI1640 medium containing 10% fetal calf serum (FCS) at a concentration of 5×10^4 cells/mL, and incubated at 37° C. in a 5% carbon dioxide incubator. Then, bortezomib was added thereto to adjust the final concentration of 5 nmol/L, and the incubation was continued. After confirmation of the survival and satisfactory growth of the cells, the cells were suspended at a concentration of 5×10^4 cells/mL, then bortezomib was added at a concentration of 10 nmol/L, and the incubation was continued. Then, after confirmation of the survival and satisfactory growth of the cells, the concentration of bortezomib was increased step by step, and the culture and subculture were repeated to create the bortezomib-resistant KMS-11 cells being capable of growing at a concentration of 100 nmol/L of bortezomib. Hereinafter, thus prepared cell line was referred to as “KMS-11/Bor”.
(§1) A cell solution (90 μL/well) of KMS-11 or KMS-11/Bor suspended in an RPMI1640 medium containing 10% FCS (hereinafter referred to as culture medium) at a concentration of 5×10^4 cells/mL was inoculated in a 96-well microplate (Nunc), and as for a blank the culture medium (100 μL/well each) was added, and the plate was incubated in a 5% carbon dioxide incubator for 5 hours.
(§2) The test compound was serially diluted to yield a diluted solution having a concentration of 10-fold of the final concentration, and the solution (10 μL/well each) was added (n=3 for one concentration). As for a control, the culture medium containing no test compound (10 μL/well each) was added. The tests for the control and the blank were performed in n=8. The incubation was carried out for 72 hours after addition of the test compound, and the number of viable cells was counted with a cell proliferation reagent WST-1 (WST-1 reagent; Roche Diagnostics). The WST-1 reagent (10 μL/well) was added to each plate. The plate was incubated in a carbon dioxide incubator for 2 hours, then stirred on a plate mixer, and the absorbance was measured at 450 nm and 655 nm using a microplate spectrophotometer (Molecular Device; SPECTRAmax 340PC-384). For each well, the differential absorbance was calculated by subtracting the absorbance at 655 nm from that at 450 nm. Further, the absorbance corresponding to the viable cell number was calculated by subtracting the differential absorbance of the blank from the above differential absorbance.
(§3) The followings describe the calculation method for IC50. The absorbance corresponding to the viable cell number obtained in the wells untreated with the test compound was regarded as 100%, and the absorbance obtained in the wells treated with the test compound was represented by the relative value (% control). From these values, the IC50 of viable cell number (the concentration at which the viable cell number is reduced to 50% of the control) was calculated. FIGS. 1 to 4 show the % control at the respective concentration of the test compound after treatment with the test compound. […] In addition, values in which IC50 of KMS-11/Bor is divided by IC50 of KMS-11 (IC50 ratio) is shown in Table 3 as the degree of bortezomib resistance in the respective test compounds.
In general terms: Tetrazolium assays rely on reduction of a dye to a coloured formazan, in cell work by metabolically active cells.

The test system of experiment [3] is OPM-2/Bor (bortezomib-resistant OPM-2 cells). The experiment can be described thus: Test for the growth inhibition to OPM-2/Bor (WST-1, 72 hours). The class given is cell-based, human. As to conditions: for IC50: OPM-2/Bor cells, 72 hours, WST-1, read-out: IC50 OPM/Bor (growth-inhibitory effect, viable cell number); for IC50 ratio (IC50 of OPM-2/Bor divided by IC50 of OPM-2): degree of bortezomib resistance, OPM-2/Bor vs OPM-2. How it is done:
OPM-2 cells were suspended in an RPMI1640 medium containing 10% fetal calf serum (FCS) at a concentration of 5×10^4 cells/mL, and incubated at 37° C. in a 5% carbon dioxide incubator. Then, bortezomib was added thereto to adjust the final concentration of 2.5 nmol/L, and the incubation was continued. After confirmation of the survival and satisfactory growth of the cells, bortezomib was added at a concentration of 3.75 nmol/L, and the incubation was continued. Then, after confirmation of the survival and satisfactory growth of the cells, the concentration of bortezomib was increased step by step, and the culture and subculture were repeated to create the bortezomib-resistant OPM-2 cells being capable of growing at a concentration of 15 nmol/L of bortezomib. Hereinafter, thus prepared cell line was referred to as “OPM-2/Bor”.
(§4) A cell solution (90 μL/well) of OPM-2 or OPM-2/Bor suspended in an RPMI1640 medium containing 10% FCS (hereinafter referred to as culture medium) at a concentration of 5×10^4 cells/mL was inoculated in a 96-well microplate (Nunc), and as for a blank the culture medium (100 μL/well each) was added, and the plate was incubated in a 5% carbon dioxide incubator for 5 hours.
as §2, with “concentration” for “concentration,”
as §3, with “FIGS. 5” for “FIGS. 1”, “to 8” for “to 4”, “IC50 ratio for OPM-2/Bor was” for “IC50 of KMS-11/Bor is”, “of OPM-2” for “of KMS-11”, “Table 4” for “Table 3”

For another experiment, the system named is KMS-11 cells. The experiment in a line: Test for the growth inhibition to KMS-11 (WST-1, 72 hours). The class given is cell-based, human. As to conditions: read-out: IC50 KMS-11 (growth-inhibitory effect, viable cell number). How it is done: as §1, §2
The followings describe the calculation method for IC50. The absorbance corresponding to the viable cell number obtained in the wells untreated with the test compound was regarded as 100%, and the absorbance obtained in the wells treated with the test compound was represented by the relative value (% control). From these values, the IC50 of viable cell number (the concentration at which the viable cell number is reduced to 50% of the control) was calculated. FIGS. 1 to 4 show the % control at the respective concentration of the test compound after treatment with the test compound. […]

In another experiment the test system is OPM-2 cells. The experiment can be described thus: Test for the growth inhibition to OPM-2 (WST-1, 72 hours). As to conditions: read-out: IC50 OPM-2 (growth-inhibitory effect, viable cell number). Type of experiment: cell-based, human. How it is done: as §4
as §2, with “concentration” for “concentration,”
The followings describe the calculation method for IC50. The absorbance corresponding to the viable cell number obtained in the wells untreated with the test compound was regarded as 100%, and the absorbance obtained in the wells treated with the test compound was represented by the relative value (% control). From these values, the IC50 of viable cell number (the concentration at which the viable cell number is reduced to 50% of the control) was calculated. FIGS. 5 to 8 show the % control at the respective concentration of the test compound after treatment with the test compound. […]

The subject of experiment [4] is refractory/recurrent multiple myeloma. The note with it: phase I, 17-AAG alone; cited from earlier work.
In the next experiment the test system is OPM-2/Bor cells. The experiment can be described thus: Anti-tumor effect in a mouse model to which the OPM-2/Bor cells have been implanted. Type of experiment: in vivo. As to conditions: for T/C value (V/V0 of group divided by V/V0 of negative control group): Day 14, OPM-2/Bor implanted scid mice. How it is done: The day before the implantation of cancer cells, an anti-asialo GM1 antibody (0.3 mg/mouse each) was administered intraperitoneally to Fox C. B-17/Icr-scidJcl mice (CLEA Japan, Inc.). The OPM-2/Bor cells were grown by incubation in an RPMI1640 medium containing 10% FCS at 37° C. in a 5% carbon dioxide incubator, and implanted into the ventral subcutaneous portion at a dose of 1×10^7 cells/mouse. Eighteen days after implantation, the major axis and minor axis of the tumor growing in the subcutaneous portion were measured with a vernier micrometer, and the tumor volume was calculated according to the following equation.
At the same time, the body weight of each mouse was measured, and the mice were divided into the following administration groups consisting of 5 mice per group so that the average tumor volume and the average body weight became uniform; and this day was regarded as the test-starting day 0, on which the administration was started.
Compound 22 was dissolved in physiological saline (Otsuka Pharmaceutical Co., Ltd.) at a concentration of 10 or 5 mg/mL, and administered intravenously in the tail vein at a dose of 0.01 mL/g body weight of mouse, respectively, (corresponding to 100 mg/kg and 50 mg/kg) twice a day continuously up to the 4th day from the starting day 0.
Bortezomib was dissolved in physiological saline at a concentration of 0.1 or 0.05 mg/mL, and administered intravenously in the tail vein at a dose of 0.01 mL/g body weight of mouse, respectively, (corresponding to […] and 0.5 mg/kg) once a day on the starting day 0, […].
A. Negative control group (Control): No administration of the test compound B. Bortezomib administered group: 1 mg/kg (administered once a day on the days 0, 3, 7, and 10) C. […]
Following the day 0, the tumor volume was measured twice a week. The anti-tumor effect was determined by calculating the average value of the tumor volume in each group and comparing a change of the tumor volume (V/V0), wherein the tumor volume on the day 0 was defined as V0.

Experiment [5] concerns refractory/recurrent multiple myeloma. The note with it: clinical, New England Journal of Medicine 348, 2609; cited from earlier work.

On to `C=CCNc1c(O)cc2c(O)c1C[C@@H](C)C[C@H](OC)[C@H](O)[C@@H](C)/C=C(\C)[C@H](OC(N)=O)[C@@H](OC)/C=C\C=C(/C)C(=O)N2` [IPI-504], for which, in experiment [1], the “Cases with SD as anti-tumor effect” value is recorded as 3 out of the 17.

With `CC(C)C[C@@H](C=O)NC(=O)[C@H](CC(C)C)NC(=O)[C@H](CC(C)C)NC(=O)OCc1ccccc1` [MG-132] (Cbz-Leu-Leu-Leu-aldehyde), the IC50 turned out to be 2 µM in experiment [2] (Homo sapiens), 1.5 µM in experiment [3] (Homo sapiens), 0.26 µM in the experiment on KMS-11 cells (Homo sapiens) and 0.094 µM with OPM-2 cells (Homo sapiens). Further, the “IC50 ratio (IC50 of KMS-11/Bor divided by IC50 of KMS-11)” value in experiment [2] is given as 7.7. Also, the “IC50 ratio (IC50 of OPM-2/Bor divided by IC50 of OPM-2)” value in experiment [3] was 16.

Take `C=CCNC1=C2C[C@@H](C)C[C@H](OC)[C@H](O)[C@@H](C)/C=C(\C)[C@H](OC(N)=O)[C@@H](OC)/C=C\C=C(/C)C(=O)NC(=CC1=O)C2=O` [Compound 17-AAG, 17-allylamino-17-demethoxygeldanamycin]: the IC50 in experiment [2] was found to be 0.062 µM; in experiment [3], 0.35 µM; in the experiment with KMS-11 cells, 0.082 µM; with OPM-2 cells, 0.31 µM. Moreover, the “IC50 ratio (IC50 of KMS-11/Bor divided by IC50 of KMS-11)” value in experiment [2] is 0.76. In addition, in experiment [3], the “IC50 ratio (IC50 of OPM-2/Bor divided by IC50 of OPM-2)” value came out at 1.1. In experiment [4], the “Patients with stable disease (SD) or more effect” value was 9 out of the 22.

On to `CC(C)C[C@H](NC(=O)[C@H](Cc1ccccc1)NC(=O)c1cnccn1)B(O)O` [Bortezomib, bortezomib], for which the IC50 is 0.17 µM in experiment [2] (Homo sapiens), 0.11 µM in experiment [3] (Homo sapiens), 0.0082 µM in the experiment with KMS-11 cells (Homo sapiens) and 0.0039 µM in the experiment with OPM-2 cells (Homo sapiens). In addition, in experiment [2], the “IC50 ratio (IC50 of KMS-11/Bor divided by IC50 of KMS-11)” value came out at 21. Besides, the “IC50 ratio (IC50 of OPM-2/Bor divided by IC50 of OPM-2)” value in experiment [3] is 28. Moreover, the “T/C value (V/V0 of group divided by V/V0 of negative control group)” value in the experiment on OPM-2/Bor cells (B group: 1 mg/kg intravenously once a day on days 0, 3, 7, 10) stood at 0.85; in the experiment on OPM-2/Bor cells (C group: 0.5 mg/kg intravenously once a day on days 0, 3, 7, 10), 1.0. For the same compound, the “Anti-tumor effect, change of tumor volume (V/V0), FIG. 9” value in the experiment with OPM-2/Bor cells (OPM-2/Bor implanted mice, Compound 22 100 and 50 mg/kg, bortezomib 1 and 0.5 mg/kg) is given as “did not show a remarkable growth inhibitory effect”. Besides, the “Share of refractory/recurrent multiple myeloma in which the drug is effective” value in experiment [5] was “approximately 35%”. Also, the “Share of refractory/recurrent multiple myeloma in which the drug is ineffective” value in experiment [5] is “approximately 40%”.
